{"source": "paper PMC5218480", "about": "(PLoS ONE, 2017)", "tested_on": "MV-4-11 cells", "assay": "Gene expression microarray analysis (Affymetrix PrimeView) and GSEA", "type": "cell-based, human", "settings": "ProbeSet 11754607_s_at; LIST B"}
{"smiles": "Nc1ncn([C@@H]2O[C@H](CO)[C@@H](O)[C@H]2O)c(=O)n1", "note": "[azacitidine]", "values": [{"measurement": "RFU, HSP90B1 /// MIR3652", "value": 2647.82, "unit": "RFU"}]}
